# PMC11333937 (Science translational medicine, 2024)
# pEC50: −log10 of the molar value. Where two headings read alike, the source gives them in different places.
# How the values were obtained:
# SARS-CoV-2 WA/1 [1] = experiment: microbe, parasite or virus in culture; type: cell-based; settings: Severe acute respiratory syndrome coronavirus 2, read-out: EC50, inhibition of SARS-CoV-2 replication
# SARS-CoV Urbani = type: cell-based; settings: HAE, two donors, 10, 1, 0.1 μM, MOI 0.5, 72 hpi
# bat-CoV RsSHC014 = type: cell-based
# SARS-CoV-2 WA/1 [2] = type: cell-based
# SARS-CoV-2 Omicron BA.1 = type: cell-based
# MERS-CoV = type: cell-based; settings: HAE, two donors, 10, 1, 0.1 μM, MOI 0.5, 72 hpi
# [3] = tested on: SARS-like bat-CoV RsSHC014; type: in vivo, mouse
# [4] = tested on: SARS-CoV-2 Omicron (B.1.1.529/BA.1); settings: mouse, in vivo
# [5] = tested on: primary human airway epithelial (HAE) cells
# [6] = not told; cited from earlier work
# [7] = Mouse GS-5245 pharmacokinetic study; settings: 30 mg/kg GS-5245 oral, timepoints over 24 hr, three mouse strains
# [8] = direct oral dosing of GS-441524, non-human primates; cited from earlier work
smiles,measurement,setting,value
CC(C)C(=O)OC[C@H]1O[C@@](C#N)(c2ccc3c(N)ncnn23)[C@H](O)[C@@H]1O [GS-5245],pEC50,SARS-CoV-2 WA/1 [1],6.13
same,infectious virus production (PFU in apical washes),SARS-CoV Urbani,dose-dependent reduction in infectious virus production
same,infectious virus production (PFU in apical washes),bat-CoV RsSHC014,dose-dependent reduction in infectious virus production
same,infectious virus production (PFU in apical washes),SARS-CoV-2 WA/1 [2],dose-dependent reduction in infectious virus production
same,infectious virus production (PFU in apical washes),SARS-CoV-2 Omicron BA.1,dose-dependent reduction in infectious virus production
same,infectious virus production (PFU in apical washes),MERS-CoV,dose-dependent reduction in infectious virus production
same,viral titers and gross lung pathology,"[3]; 10 mg/kg BID, 12 or 24 hpi, 4 dpi",did not exhibit reduced viral titers
same,body weight compared to vehicle-treated mice,[3]; 30 mg/kg BID initiated at 12 hpi,increased weight
same,virus lung titers and gross lung pathology,"[3]; 30 mg/kg BID, irrespective of initiation time (12 or 24 hpi), 4 dpi",reduced virus lung titers and gross lung pathology
same,acute lung injury scores (ATS and DAD),"[3]; 30 mg/kg initiated 24 hpi, 4 dpi",reductions in DAD scores only
same,acute lung injury scores (ATS and DAD),"[3]; 30 mg/kg initiated at 12 hpi, 4 dpi",reduced acute lung injury scores with both scoring tools
same,ATS ALI and DAD scores,[4],"Unlike ATS ALI scores (Fig. 6D), DAD scores were different"
same,lung viral titers relative to vehicle,[4],lower lung viral titers
same,macroscopic lung pathology,[4],less macroscopic lung pathology
same,cytotoxicity,A549-hACE2 cells,without cytotoxicity
same,cytotoxicity,LLC-MK2-TMPRSS2 cells,without cytotoxicity
same,cytotoxicity in HAE,[5],without measurable cytotoxicity
same,cellular permeability,[6],increased cellular permeability over GS-441524
same,intact GS-5245 prodrug in plasma,[7],No intact GS-5245 prodrug was observed at any timepoint sampled
N#C[C@@]1(c2ccc3c(N)ncnn23)O[C@H](CO)[C@@H](O)[C@H]1O [GS-441524],pEC50,SARS-CoV-2 WA/1 [1],5.34
same,cytotoxicity,LLC-MK2-TMPRSS2 cells,without cytotoxicity
same,oral bioavailability,[8],low bioavailability
CC(C)(C)[C@H](NC(=O)C(F)(F)F)C(=O)N1C[C@H]2[C@@H]([C@H]1C(=O)N[C@H](C#N)C[C@@H]1CCNC1=O)C2(C)C [nirmatrelvir],pEC50,SARS-CoV-2 WA/1 [1],7.15
CCC(CC)COC(=O)[C@H](C)N[P@](=O)(OC[C@H]1O[C@@](C#N)(c2ccc3c(N)ncnn23)[C@H](O)[C@@H]1O)Oc1ccccc1 [remdesivir],pEC50,SARS-CoV-2 WA/1 [1],6.72
same,cytotoxicity,LLC-MK2-TMPRSS2 cells,without cytotoxicity
